Test results from patent US20210347727A1 (BLADE THERAPEUTICS, INC., priority 2017, published 2021).

Tests used:
[1] = test system: calpain activity in SH-SY5Y cells; test: SH-SY5Y cellular calpain activity, Suc-LLVY-AMC fluorescence assay; format: cell-based; settings: Suc-LLVY-AMC substrate
Description: Calpain activity in SH-SY5Y cells and inhibition thereof were assessed by means of a homogeneous, fluorescence assay that uses the cell-permeable and pro-fluorescent calpain substrate Suc-LLVY-AMC (Sigma-Aldrich Inc). Upon intracellular calpain cleavage of Suc-LLVY-AMC, fluorescent amino-methyl-coumarin (AMC) is released into the media resulting in a continuous increase in fluorescence signal that is proportional to intra-cellular calpain activity.
Assays were typically setup by seeding SH-SY5Y cells in black 384-well plates at 40 k/per well in RPMI-1640 containing 1% serum followed by 37 C overnight incubation. Next morning, cells were pre-incubated for 30 min with serially diluted compounds followed by addition of 100 uM of Suc-LLVY-AMC substrate. The continuous increase in AMC fluorescence is monitored using a FLIPR, Tetra plate reader (Molecular Devices Inc) and slopes measured to report calpain activity. Dose response curves (slopes vs. log inhibitor concentration) were typically fit to a 4-parameter logistic function to extract IC50 values.

[2] = test system: calpain activity in SH-SY5Y cells (Spectrin); test: SH-SY5Y Spectrin cellular calpain inhibition; format: cell-based
Human Calpain 9/NS1 = target: T1, Human Calpain 9/NS1 (Homo sapiens, UniProt O14815); test: Biochemical inhibition of calpain 9, continuous fluorescence (FRET substrate) assay; settings: mean; read-out: Human Calpain 9/NS1 IC50 (nM)_MEAN
T1 sequence (O14815 1-690): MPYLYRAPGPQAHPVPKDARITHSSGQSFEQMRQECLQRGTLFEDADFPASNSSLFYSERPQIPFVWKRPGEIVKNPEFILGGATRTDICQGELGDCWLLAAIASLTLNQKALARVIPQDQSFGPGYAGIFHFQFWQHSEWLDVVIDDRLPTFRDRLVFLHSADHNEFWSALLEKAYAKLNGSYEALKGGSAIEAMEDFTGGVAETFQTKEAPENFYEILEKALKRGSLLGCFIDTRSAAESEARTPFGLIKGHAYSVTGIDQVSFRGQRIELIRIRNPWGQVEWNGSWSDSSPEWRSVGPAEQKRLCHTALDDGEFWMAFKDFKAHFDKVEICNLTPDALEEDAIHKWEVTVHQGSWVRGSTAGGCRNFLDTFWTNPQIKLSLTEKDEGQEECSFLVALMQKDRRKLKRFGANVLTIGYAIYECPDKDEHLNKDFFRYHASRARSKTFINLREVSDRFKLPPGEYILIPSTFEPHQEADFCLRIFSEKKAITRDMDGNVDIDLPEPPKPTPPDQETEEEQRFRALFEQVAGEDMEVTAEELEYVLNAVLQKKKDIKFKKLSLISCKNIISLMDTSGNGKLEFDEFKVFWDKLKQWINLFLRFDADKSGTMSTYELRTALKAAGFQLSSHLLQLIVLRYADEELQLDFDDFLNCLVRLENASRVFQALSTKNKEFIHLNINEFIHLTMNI
T1 sequence (P04632 1-268 partner): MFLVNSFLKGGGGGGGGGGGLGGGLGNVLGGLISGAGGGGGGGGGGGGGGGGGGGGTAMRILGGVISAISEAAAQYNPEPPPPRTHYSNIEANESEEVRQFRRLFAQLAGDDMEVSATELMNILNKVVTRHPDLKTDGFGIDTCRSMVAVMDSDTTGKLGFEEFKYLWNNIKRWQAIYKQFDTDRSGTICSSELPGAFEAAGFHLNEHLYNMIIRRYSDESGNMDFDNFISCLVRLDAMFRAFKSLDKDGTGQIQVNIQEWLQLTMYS
Description: (§1) Calpain 1, 2, and 9 activity and inhibition thereof are assessed by means of a continuous fluorescence assay. The SensoLyte 520 Calpain substrate (Anaspec Inc) is optimized for detecting calpain activity. This substrate contains a novel internally quenched 5-FAM/QXL™ 520 FRET pair. Calpains 1, 2, and 9 cleave the FRET substrate into two separate fragments resulting in an increase of 5-FAM fluorescence that is proportional to calpain activity.
(§2) Assays are typically setup in black 384-well plates using automated liquid handling as follows. Calpain assay base buffer typically contains 50 mM Tris, pH 7.5, 100 mM NaCl and 1 mM DTT. Inhibitors are serially diluted in DMSO and used to setup 2× mixtures with calpains in the aforementioned buffer. After incubation at ambient temperature (25 C), the reaction is initiated by adding a 2× mix of the fluorescent peptide substrate and CaCl2 (required for in-situ calpain activation) in the same buffer. Reaction progress curve data are typically collected for 10 min using excitation/emission wavelengths of 490 nm/520 nm on SpectraMax i3x or the FLIPR-Tetra plate readers (Molecular Devices Inc). Reaction rates were calculated from progress curve slopes typically over 1-5 min. Dose response curves (rate vs. log inhibitor concentration) were typically fit to a 4-parameter logistic function to extract IC50 values.

Human Calpain 1/NS1 = target: T2, Human Calpain 1/NS1 (Homo sapiens, UniProt P07384); test: Biochemical inhibition of calpain 1, continuous fluorescence (FRET substrate) assay; settings: mean; read-out: Human Calpain 1/NS1 IC50 (nM)_MEAN
T2 sequence (P07384 1-714): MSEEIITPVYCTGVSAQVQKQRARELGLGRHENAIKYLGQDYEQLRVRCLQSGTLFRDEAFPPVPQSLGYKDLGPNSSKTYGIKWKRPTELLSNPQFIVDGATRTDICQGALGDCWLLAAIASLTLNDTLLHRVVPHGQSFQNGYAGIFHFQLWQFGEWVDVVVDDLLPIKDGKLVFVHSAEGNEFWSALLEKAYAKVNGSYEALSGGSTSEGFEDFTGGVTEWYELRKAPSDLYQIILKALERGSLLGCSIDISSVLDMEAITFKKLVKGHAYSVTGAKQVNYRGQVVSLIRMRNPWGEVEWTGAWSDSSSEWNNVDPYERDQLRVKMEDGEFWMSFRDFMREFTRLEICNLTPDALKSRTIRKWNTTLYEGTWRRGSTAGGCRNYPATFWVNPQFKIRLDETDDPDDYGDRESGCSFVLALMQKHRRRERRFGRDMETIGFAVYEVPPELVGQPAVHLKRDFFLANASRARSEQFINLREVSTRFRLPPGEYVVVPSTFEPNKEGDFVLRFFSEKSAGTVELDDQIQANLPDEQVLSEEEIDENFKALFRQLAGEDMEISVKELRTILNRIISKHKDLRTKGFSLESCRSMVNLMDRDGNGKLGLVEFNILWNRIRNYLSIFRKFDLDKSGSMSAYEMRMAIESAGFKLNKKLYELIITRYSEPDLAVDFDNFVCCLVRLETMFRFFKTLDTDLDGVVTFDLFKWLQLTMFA
T2 sequence (P04632 1-268 partner): T1 sequence (P04632 1-268 partner)
Description: as §1, §2

Human Calpain 2/NS1 = target: T3, Human Calpain 2/NS1 (Homo sapiens, UniProt P17655); test: Biochemical inhibition of calpain 2, continuous fluorescence (FRET substrate) assay; settings: mean; read-out: Human Calpain 2/NS1 1C50 [sic] (nM)_MEAN
T3 sequence (P17655 1-700): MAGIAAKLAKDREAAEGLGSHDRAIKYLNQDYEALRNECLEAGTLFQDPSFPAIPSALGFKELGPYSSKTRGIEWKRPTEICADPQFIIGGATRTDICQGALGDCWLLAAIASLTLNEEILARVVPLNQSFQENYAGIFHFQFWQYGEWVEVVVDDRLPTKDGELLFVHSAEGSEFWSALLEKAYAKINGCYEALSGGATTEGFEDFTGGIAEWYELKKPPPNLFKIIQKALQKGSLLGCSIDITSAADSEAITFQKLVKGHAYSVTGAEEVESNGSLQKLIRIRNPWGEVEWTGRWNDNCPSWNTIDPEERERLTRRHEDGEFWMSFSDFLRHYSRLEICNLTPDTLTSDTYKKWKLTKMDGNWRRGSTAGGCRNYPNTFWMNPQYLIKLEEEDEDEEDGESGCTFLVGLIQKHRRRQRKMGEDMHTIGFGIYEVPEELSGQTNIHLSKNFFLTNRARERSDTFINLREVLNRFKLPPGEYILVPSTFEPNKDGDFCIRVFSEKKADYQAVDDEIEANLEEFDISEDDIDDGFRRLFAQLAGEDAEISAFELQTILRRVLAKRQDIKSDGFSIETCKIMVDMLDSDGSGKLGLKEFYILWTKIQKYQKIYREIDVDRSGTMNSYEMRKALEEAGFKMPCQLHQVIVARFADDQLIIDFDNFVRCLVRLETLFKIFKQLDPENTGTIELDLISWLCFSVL
T3 sequence (P04632 1-268 partner): T1 sequence (P04632 1-268 partner)
Description: as §1, §2

SMILES | IC50 [1] [µM] | IC50 [2] [µM] | IC50 (Human Calpain 9/NS1) [nM] | IC50 (Human Calpain 1/NS1) [nM] | IC50 (Human Calpain 2/NS1) [nM]
O=CC(Cc1ccccc1)NC(=O)c1cccc2c1oc1ccccc12 (centres unmarked) [Compound 46, N-(1-OXO-3-PHENYLPROPAN-2-YL)DIBENZO[b,a]FURAN-4-CARBOXAMIDE] | > 25 | 10 to 25 | 3000 to 10000 | 3000 to 10000 | < 3000
Cn1c2ccccc2c2c(C(=O)NC(C=O)Cc3ccccc3)cccc21 (centres unmarked) [Compound 47, 9-METHYL-N-(1-OXO-3-PHENYLPROPAN-2-YL)-9H-CARBAZOLE-4-CARBOXAMIDE] | < 10 | > 25 | < 3000 | < 3000 | < 3000
NC(=O)C(=O)[C@H](Cc1ccccc1)NC(=O)c1cc(F)c(Cl)cc1Cl [Compound 33, (S)—N-(4-AMINO-3,4-DIOXO-1-PHENYLBUTAN-2-YL)-2,4-DICHLORO-5-FLUOROBENZAMIDE] | < 10 | < 10 | < 3000 | < 3000 | < 3000
Cc1ccc(Cl)c(C(=O)N[C@@H](Cc2ccccc2)C(=O)C(N)=O)c1F [Compound 31, (S)—N-(4-AMINO-3,4-DIOXO-1-PHENYLBUTAN-2-YL)-6-CHLORO-2-FLUORO-3-METHYLBENZAMIDE] | < 10 | < 10 | < 3000 | < 3000 | < 3000
COc1ccc(Br)cc1C(=O)N[C@@H](Cc1ccccc1)C(=O)C(N)=O [Compound 35, (S)—N-(4-AMINO-3,4-DIOXO-1-PHENYLBUTAN-2-YL)-5-BROMO-2-METHOXYBENZAMIDE] | < 10 | 10 to 25 | < 3000 | < 3000 | < 3000
NC(=O)C(=O)C(Cc1ccccc1)NC(=O)C1c2ccccc2Oc2ccccc21 (centres unmarked) [Compound 5, N-(4-AMINO-3,4-DIOXO-1-PHENYLBUTAN-2-YL)-9H-XANTHENE-9-CARBOXAMIDE] |  | > 25 | < 3000 | < 3000 | < 3000
NC(=O)C(=O)C(Cc1ccccc1)NC(=O)c1ccc2c(c1)OCO2 (centres unmarked) [Compound 24, N-(4-AMINO-3,4-DIOXO-1-PHENYLBUTAN-2-YL)BENZO[d][1,3]DIOXOLE-5-CARBOXAMIDE] |  | > 25 | < 3000 | 3000 to 10000 | < 3000
O=CC(Cc1ccccc1)NC(=O)c1c(F)cccc1C(F)(F)F (centres unmarked) [Compound 39, 2-FLUORO-N-(1-OXO-3-PHENYLPROPAN-2-YL)-6-(TRIFLUOROMETHYL)BENZAMIDE] | 10 to 25 | > 25 | < 3000 | < 3000 | < 3000
NC(=O)C(=O)C(Cc1ccccc1)NC(=O)c1c(Cl)ccc2ccccc12 (centres unmarked) [Compound 13, N-(4-AMINO-3,4-DIOXO-1-PHENYLBUTAN-2-YL)-2-CHLORO-1-NAPHTHAMIDE] | 10 to 25 | 10 to 25 | < 3000 | < 3000 | < 3000
NC(=O)C(=O)[C@H](Cc1ccccc1)NC(=O)c1ccc(F)cc1 [Compound 28, (S)—N-(4-AMINO-3,4-DIOXO-1-PHENYLBUTAN-2-YL)-4-FLUOROBENZAMIDE] | < 10 | > 25 | 3000 to 10000 | > 10000 | 3000 to 10000
O=CC(Cc1ccccc1)NC(=O)c1c(Cl)ccc2ccccc12 (centres unmarked) [Compound 44, 2-CHLORO-N-(1-OXO-3-PHENYLPROPAN-2-YL)-1-NAPHTHAMIDE] | < 10 | < 10 | < 3000 | < 3000 | < 3000
COc1ccc(Cl)cc1C(=O)NC(C=O)Cc1ccccc1 (centres unmarked) [Compound 37, 5-CHLORO-2-METHOXY-N-(1-OXO-3-PHENYLPROPAN-2-YL)BENZAMIDE] | > 25 | > 25 | > 10000 | 3000 to 10000 | < 3000
NC(=O)C(=O)[C@H](Cc1ccccc1)NC(=O)c1c(F)cc(F)cc1F [Compound 3, (S)—N-(4-AMINO-3,4-DIOXO-1-PHENYLBUTAN-2-YL)-2,4,6-TRIFLUOROBENZAMIDE] | 10 to 25 | > 25 | < 3000 | < 3000 | < 3000
Cc1ccc(F)c(C(=O)N[C@@H](Cc2ccccc2)C(=O)C(N)=O)c1Cl [Compound 30, (S)—N-(4-AMINO-3,4-DIOXO-1-PHENYLBUTAN-2-YL)-2-CHLORO-6-FLUORO-3-METHYLBENZAMIDE] | < 10 | 10 to 25 | < 3000 | < 3000 | < 3000
